Assay results as given in patent US20230090708A1, “METHODS AND COMPOSITIONS FOR THE TREATMENT OF HEMANGIOMA” (MASSEY VENTURES LIMITED, priority 2020, published 2023).
Converted amounts (≈) assume the structure as drawn. Like-named read-outs stand apart in the source and are kept apart here.

What was measured:
[1] = molecular target: T1, rabbit lung ACE (Oryctolagus cuniculus, UniProt P12822); conditions: vs rabbit lung ACE, cited from earlier work
T1 construct: rabbit lung ACE; from tissue; host or cells: rabbit lung
T1 sequence (P12822 34-1310): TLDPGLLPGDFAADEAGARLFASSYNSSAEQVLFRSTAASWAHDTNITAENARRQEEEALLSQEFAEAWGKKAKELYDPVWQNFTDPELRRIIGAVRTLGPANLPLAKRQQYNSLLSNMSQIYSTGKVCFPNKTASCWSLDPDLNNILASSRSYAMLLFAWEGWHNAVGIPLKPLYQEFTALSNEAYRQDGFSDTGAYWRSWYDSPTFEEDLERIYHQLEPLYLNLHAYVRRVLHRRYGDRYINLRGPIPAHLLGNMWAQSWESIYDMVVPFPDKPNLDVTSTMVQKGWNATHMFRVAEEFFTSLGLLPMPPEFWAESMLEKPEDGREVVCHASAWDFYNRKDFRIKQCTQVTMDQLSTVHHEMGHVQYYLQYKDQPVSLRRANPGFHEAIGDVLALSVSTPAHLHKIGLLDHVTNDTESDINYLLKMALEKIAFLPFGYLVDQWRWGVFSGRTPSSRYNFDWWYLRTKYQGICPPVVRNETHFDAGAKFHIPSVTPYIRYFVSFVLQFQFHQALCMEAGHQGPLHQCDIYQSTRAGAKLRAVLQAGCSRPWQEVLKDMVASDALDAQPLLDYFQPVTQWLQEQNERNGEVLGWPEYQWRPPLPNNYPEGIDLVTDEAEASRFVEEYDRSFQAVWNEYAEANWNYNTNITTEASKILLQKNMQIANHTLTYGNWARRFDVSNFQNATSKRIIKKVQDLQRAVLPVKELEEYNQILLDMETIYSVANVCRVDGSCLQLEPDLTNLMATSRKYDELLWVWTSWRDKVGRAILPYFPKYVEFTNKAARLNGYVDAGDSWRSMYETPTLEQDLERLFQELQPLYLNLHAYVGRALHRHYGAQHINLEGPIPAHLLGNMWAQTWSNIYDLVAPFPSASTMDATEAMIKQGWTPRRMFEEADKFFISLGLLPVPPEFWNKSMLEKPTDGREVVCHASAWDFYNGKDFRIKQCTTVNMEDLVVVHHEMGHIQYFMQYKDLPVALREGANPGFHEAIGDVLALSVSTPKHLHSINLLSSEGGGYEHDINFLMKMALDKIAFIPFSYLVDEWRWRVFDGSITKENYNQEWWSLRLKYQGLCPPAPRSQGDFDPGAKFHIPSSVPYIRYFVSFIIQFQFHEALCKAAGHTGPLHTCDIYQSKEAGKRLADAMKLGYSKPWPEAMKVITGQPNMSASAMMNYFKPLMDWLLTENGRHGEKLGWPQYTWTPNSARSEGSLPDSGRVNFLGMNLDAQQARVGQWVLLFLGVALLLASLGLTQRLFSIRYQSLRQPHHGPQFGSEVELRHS

[2] = cited from earlier work
[3] = cited from earlier work; remark: listed apart in the source
[4] = cited from earlier work; for Half life: short or long acting: in words; for Half life: in vivo
[5] = system: proliferating hemangioma cells; assay: Example 5: R- and S-beta blockers alone and with cilazapril, MTT; type: cell-based, human; conditions: for individual isomers compared with the racemic mixture: alone; for attenuating hemangioma cell proliferation, propranolol vs timolol enantiomers: particularly at 1-5 μM
Protocol: An in vitro cell culture model of infantile hemangioma was developed to assess the impact of renin-angiotensin system inhibitors on cellular proliferation. A primary cell line of proliferating infantile hemangioma cells, including haemangioma stem cells, was derived from a tissue biopsy obtained from patients during the proliferating phase of the disease. The primary cell lines are cultured in 25 cm^2 flasks using standard culture media and conditions. The cultured cells are used to seed 96-well plates with a seed cell concentration of 2500 or 5000 cells per well, with additional culture media (200 μL). All studies are performed in triplicate. The plates are incubated overnight to allow cell adherence to the wells. The wells are photographed to confirm cell adherence and confluency. The appropriate drug(s) to be examined are subsequently added to the wells. After 24 hours, one set of plates (experimental and blank) is stopped. The media is aspirated from each well and stored frozen for possible future analyses. Media is added to the wells and an MTT determination is undertaken according to standard protocols. This is repeated at 48 and 72 hours. From the triplicate incubations of each drug concentration at each time, as well as for all controls, the mean±standard deviation is calculated. The net survival (optical density value) is calculated by subtracting the appropriate blank mean value from each cell culture. From the MTT data, the percentage of survival of cells in the presence of each concentration of drug after each time of culturing is determined. The experimental protocol was performed as per Example 1. Briefly, cells were seeded in 96-well plates at concentrations of 2500 cells/well in triplicate for each drug and drug combination. Drug(s) were added to each well 24 hours after seeding and re-dosed every 24 hours. Cell viability was assessed by MTT assay after 24, 48, and 72 hours. All plates were performed in triplicate. […] Timolol and propranolol were used as model beta blockers and cilazapril as a model ACE inhibitor.

[6] = system: proliferating hemangioma cell lines (n=9); assay: Example 6: single agents and combinations on nine primary cell lines, MTT, CompuSyn combination index; type: cell-based, human; conditions: 1 to 10 μM; 72 hours; n=9
Protocol: (§1) An in vitro cell culture model of infantile hemangioma was developed to assess the impact of renin-angiotensin system inhibitors on cellular proliferation. A primary cell line of proliferating infantile hemangioma cells, including haemangioma stem cells, was derived from a tissue biopsy obtained from patients during the proliferating phase of the disease. The primary cell lines are cultured in 25 cm^2 flasks using standard culture media and conditions. The cultured cells are used to seed 96-well plates with a seed cell concentration of 2500 or 5000 cells per well, with additional culture media (200 μL). All studies are performed in triplicate.
The plates are incubated overnight to allow cell adherence to the wells. The wells are photographed to confirm cell adherence and confluency. The appropriate drug(s) to be examined are subsequently added to the wells. After 24 hours, one set of plates (experimental and blank) is stopped. The media is aspirated from each well and stored frozen for possible future analyses. Media is added to the wells and an MTT determination is undertaken according to standard protocols. This is repeated at 48 and 72 hours.
(§2) From the triplicate incubations of each drug concentration at each time, as well as for all controls, the mean±standard deviation is calculated. The net survival (optical density value) is calculated by subtracting the appropriate blank mean value from each cell culture. From the MTT data, the percentage of survival of cells in the presence of each concentration of drug after each time of culturing is determined.
A study was undertaken using combinations of ACE inhibitors, beta blockers and angiotensin II type 2 receptor blockers to inhibit proliferating hemangioma cells. […] Patient histories pertaining to each cell line is described in Table 5.
The experimental protocol was performed as per Example 1. Briefly, cells were seeded in 96-well plates at concentrations of 2500 cells/well in triplicate for each drug and drug combination. Drug(s) were added to each well 24 hours after seeding and re-dosed every 24 hours. Cell viability was assessed by MTT assay after 24, 48, and 72 hours. All plates were performed in triplicate. Drugs were assessed alone and in combination, as described in Table 6. Propranolol was used as a model beta blocker, cilazapril as a model ACE inhibitor, and SMM02 (L-159686) as a model AT2Ri. Synergy was measured using the CompuSyn open-source software protocol for quantifying synergism and antagonism that uses the median-effect equation and mass-action laws to generate a combination index (www.compusyn.com). Synergism, additive effects and antagonism are defined as a CI<1, CI=1, and CI>1, respectively.

[7] = system: proliferating hemangioma cells; assay: Experiment 7: different ACEi and beta blockers on one primary cell line, MTT; type: cell-based, human; conditions: for Results Summary: 72 hours, one cell line; for inhibition of proliferating hemangioma cells: 1 μM and 10 μM
Protocol: as §1
The plates are incubated overnight to allow cell adherence to the wells. The wells are photographed to confirm cell adherence and confluency. The appropriate drug(s) to be examined are subsequently added to the wells. […] The media is aspirated from each well and stored frozen for possible future analyses. Media is added to the wells and an MTT determination is undertaken according to standard protocols.
as §2
Briefly, cells were seeded in 96-well plates at concentrations of 2500 cells/well in triplicate for each drug and drug combination. […] All plates were performed in triplicate. Beta blockers used in the study were (±)-propranolol, R-propranolol, S-propranolol, timolol, and betaxalol.

[8] = molecular target: T2, brush border ACE (Homo sapiens, UniProt P12821); conditions: cited from earlier work
T2 construct: brush border ACE; from tissue

[9] = system: flat or minimally raised IH lesions; conditions: cited from earlier work
[10] = system: superficial IH; conditions: cited from earlier work
[11] = cited from earlier work; remark: listed apart in the source
[12] = Franz-diffusion cell permeation through skin-model membranes; conditions: 120 hours
From the text: Firstly, a custom-built Franz-diffusion cell (FIG. 34 A) was constructed in-house, consisting of a donor and receiver chamber, and fitted with a water-jacket to enable the temperature to be controlled to mimic physiological conditions. […] This model system was used as a screening tool to increase the success of subsequent permeation studies performed on excised animal skin.
The system was validated by investigating the permeation of a water-soluble fluorescent dye, carboxyfluorescein, which has poor skin penetration properties. […] As a comparison, carboxyfluorescein was encapsulated into deformable liposomes with a phospholipid membrane composition of soy phosphatidylcholine (Phospholipon® 90G) and polysorbate 80 in an 80:20 mol % ratio. […]
The carboxyfluorescein emulgel (2 mL) was placed in the receiver chamber of the Franz-diffusion cell fitted with a Strat-M® membrane, and permeation of fluorescein across the membrane was monitored over time and quantified by fluoresce spectroscopy. […]
The permeation of propranolol through skin-model membranes in vitro was assessed. A 2-mL volume of the appropriate vehicle (cream vs. emulsion gel) was placed in the donor chamber of the Franz-diffusion cell, and the concentration of propranolol in the receiver chamber was determined by UV-Vis spectroscopy at frequent time intervals over 60 hours.

T2 sequence (P12821 30-1306): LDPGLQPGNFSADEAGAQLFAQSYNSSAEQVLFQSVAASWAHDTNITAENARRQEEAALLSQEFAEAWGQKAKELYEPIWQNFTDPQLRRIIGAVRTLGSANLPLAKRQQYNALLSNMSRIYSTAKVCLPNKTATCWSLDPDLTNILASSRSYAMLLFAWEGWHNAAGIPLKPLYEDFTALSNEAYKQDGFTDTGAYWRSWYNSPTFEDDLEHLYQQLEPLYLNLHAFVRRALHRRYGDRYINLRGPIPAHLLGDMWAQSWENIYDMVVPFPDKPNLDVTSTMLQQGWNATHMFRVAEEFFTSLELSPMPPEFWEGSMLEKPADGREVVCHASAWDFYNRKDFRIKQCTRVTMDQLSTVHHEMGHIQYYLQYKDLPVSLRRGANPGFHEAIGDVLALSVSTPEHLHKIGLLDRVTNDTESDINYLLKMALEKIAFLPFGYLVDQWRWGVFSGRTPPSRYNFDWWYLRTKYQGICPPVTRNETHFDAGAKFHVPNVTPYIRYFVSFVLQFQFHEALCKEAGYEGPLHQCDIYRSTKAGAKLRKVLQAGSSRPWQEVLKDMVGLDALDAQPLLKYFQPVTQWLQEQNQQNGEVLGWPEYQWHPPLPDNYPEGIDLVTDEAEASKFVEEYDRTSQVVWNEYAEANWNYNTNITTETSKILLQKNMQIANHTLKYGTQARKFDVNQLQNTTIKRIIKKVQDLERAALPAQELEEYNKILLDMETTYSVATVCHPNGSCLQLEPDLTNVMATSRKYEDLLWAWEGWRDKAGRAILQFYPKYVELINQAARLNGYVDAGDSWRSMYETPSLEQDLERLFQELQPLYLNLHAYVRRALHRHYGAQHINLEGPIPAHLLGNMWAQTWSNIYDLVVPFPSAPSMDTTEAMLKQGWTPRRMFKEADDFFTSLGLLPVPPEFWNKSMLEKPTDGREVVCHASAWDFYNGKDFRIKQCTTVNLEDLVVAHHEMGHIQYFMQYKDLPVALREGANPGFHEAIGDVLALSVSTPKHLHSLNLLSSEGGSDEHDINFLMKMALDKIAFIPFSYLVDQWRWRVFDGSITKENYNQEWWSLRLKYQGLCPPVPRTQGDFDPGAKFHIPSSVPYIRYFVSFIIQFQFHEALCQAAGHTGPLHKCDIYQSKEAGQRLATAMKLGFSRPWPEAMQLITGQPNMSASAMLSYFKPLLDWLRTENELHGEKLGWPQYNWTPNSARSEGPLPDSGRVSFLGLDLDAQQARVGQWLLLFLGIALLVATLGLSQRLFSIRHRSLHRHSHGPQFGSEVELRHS

CCOC(=O)[C@H](CCc1ccccc1)N[C@H]1CCc2ccccc2N(CC(=O)O)C1=O [Benazepril]
IC50 [1]: 425 nM | pKa [2]: 3.5 | pKa ([2]; second value): 5.4 | Solubility ([3]; pH 7): 1.76 mg/L (pH 7) | Half life: short or long acting [4]: Long acting

CC(C)NC[C@@H](O)COc1cccc2ccccc12 [R(+) Propranolol, R-propranolol]
individual isomers compared with the racemic mixture [5]: as effective alone as the racemic mixture | attenuating hemangioma cell proliferation, propranolol vs timolol enantiomers [5]: superior to R- and S-timolol | dose-response across all cell lines [6]: typical dose-response | Estimated Optimal Dosage Range [7]: 1 to 10 µM | Inhibition vs. Cells + Adjuvant at 72 Hours ([7]; 1 μM): 1 μM - No - 1.59% | Inhibition vs. Cells + Adjuvant at 72 Hours ([7]; 10 μM): 10 μM - Response - 50.35% | Results Summary [7]: Responder

CCOC(=O)[C@H](CCc1ccccc1)N[C@@H](C)C(=O)N1[C@H](C(=O)O)C[C@@H]2CCC[C@@H]21 [Ramipril]
inhibition of proliferating hemangioma cells [7]: good and similar level of inhibition | Results Summary [7]: Responder | inhibition at 1 µM ([7]; Homo sapiens, 72 h, 1 μM, read-out: Inhibition vs. Cells + Adjuvant at 72 Hours): < 0% | inhibition at 10 µM ([7]; Homo sapiens, 72 h, 10 μM, read-out: Inhibition vs. Cells + Adjuvant at 72 Hours): 68.1% | Complete ACE inhibition lasting ([8]; after single 10 μM dose): inhibition lasting 15 days | IC50 ([8]; vs brush border ACE): 5 nM | pKa [2]: 3.75 | pKa ([2]; second value): 5.2 | Solubility [3]: 3.5 mg/L (≈ 8.4 µM) | Half life [4]: 2 to 4 h (Ramipril) | Half life: short or long acting [4]: Long acting

CC(C)NCC(O)COc1cccc2ccccc12 (stereo not drawn) [S(−) Propranolol, S-propranolol]
individual isomers compared with the racemic mixture [5]: as effective alone as the racemic mixture | attenuating hemangioma cell proliferation, propranolol vs timolol enantiomers [5]: superior to R- and S-timolol | dose-response across all cell lines [6]: typical dose-response | Estimated Optimal Dosage Range [7]: 1 to 10 µM | Inhibition vs. Cells + Adjuvant at 72 Hours ([7]; 1 μM): 1 μM - No - 2.07% | Inhibition vs. Cells + Adjuvant at 72 Hours ([7]; 10 μM): 10 μM - Response - 45.68% | Results Summary [7]: Responder

O=C(O)[C@H](CCc1ccccc1)N[C@H]1CCCN2CCC[C@@H](C(=O)O)N2C1=O [cilazaprilat]
IC50 [1]: 1.93 nM | Half life [4]: 9 h (cilazaprilat)

CCC(=O)O[C@]1(C(=O)CCl)[C@@H](C)C[C@H]2[C@@H]3CCC4=CC(=O)C=C[C@]4(C)[C@@]3(F)[C@@H](O)C[C@@]21C [clobetasol propionate]
good response ([9]; topical 0.05%, 4 to 21 weeks): 35% | no response ([9]; topical 0.05%, 4 to 21 weeks): 27% | partial response ([9]; topical 0.05%, 4 to 21 weeks): 38% | adverse effects ([9]; topical ultrapotent corticosteroid): localised atrophy, hypopigmentation, hypertrichosis and infection

CC(C)Cn1cnc2c(N)nc3ccccc3c21 [imiquimod, Imiquimod]
time within which all cases are improved ([10]; 5% cream): ≤ 4 months | side effects ([10]; topical): severe local inflammatory reactions leading to disfiguring scars

Lisinopril
Estimated Optimal Dosage Range [7]: 1 to 10 µM | Inhibition vs. Cells + Adjuvant at 72 Hours ([7]; 1 μM): 1 μM - <0% | inhibition of proliferating hemangioma cells [7]: no effect | Inhibition vs. Cells + Adjuvant at 72 Hours ([7]; 10 μM): 10 μM -1.67% | Results Summary [7]: Non- | IC50 ([1]; unit inferred): 3.3 nM | Log P ([11]; Table 1): −1.01 | log P [11]: −1.01 | pKa [2]: 3.2 | pKa ([2]; second value): 10.2 | Solubility [3]: 97000 mg/L | Half life [4]: 12.6 h | Half life: short or long acting [4]: Long acting

carboxyfluorescein
log P [11]: 2.9 | permeation of carboxyfluorescein through the skin-model membrane [12]: No permeation
